{"source": "patent US20140121193A1", "about": "“METHODS FOR TREATING FIBROMYALGIA” (priority 2012, published 2014)", "format_in_all_cases": "in vivo, human", "key": {"patients with FMS [1]": {"test_system": "patients with FMS", "assay": "Pain intensity, 10 point visual analogue scale", "procedure": "(§1) Fibromyalgia patients were treated with methylphenidate and the effects on concentration, energy, and feelings of well-being were measured. […] Pain intensity was also recorded on a 10 point visual analogue scale, with the endpoint of 1 indicating no pain, and the endpoint of 10 indicating severe pain. The four measures were administered to 48 patients with FMS, before receiving methylphenidate and post methylphenidate treatment. The FMS patients were female and met the new ACR criteria for FMS. Methylphenidate dosage was clinically determined and ranged from 10 to 60 mg per day. The median methylphenidate usage at re-testing was 30 days.\n(§2) The mean age of the FMS sample was 48.3±12.3 years. […] The largest change occurred with concentration. However, a significant change in pain intensity with methylphenidate treatment was not observed."}, "patients with FMS [2]": {"test_system": "patients with FMS", "assay": "Mental Clutter Scale (MCS), Cognition and Mental Clarity subscales, before and after methylphenidate", "details": "10 to 30 mg per day, median 30 days", "procedure": "Three studies involving a sample of over 800 subjects were carried out to determine the structure and stability of a new scale, the Mental Clutter Scale (MCS) (Leavitt & Katz, 2011, “Development of the Mental Clutter Scale,” Psychol. Rep. 109(2): 445-52). An initial pool of 13 items was formulated from self-statements of patients presenting with a history of memory complaints and a review of the literature. Seven items relating to problems with cognitive skills were rated on a 10-point Likert scale from 1=no problem, to 10=severe problem. Six items relating to the frequency of diminished mental clarity were rated on a 10-point Likert scale from 1=not at all, to 10=all the time.\n(§3) A word naming speed measure (Stroop Color and Word Test) and a measure of cognitive functioning (Mental Clutter Scale, MCS) were administered to 15 patients with FMS, before receiving methylphenidate and post-treatment with methylphenidate. The FMS patients were female, met American College of Rheumatology criteria for FMS, and had memory problems. Methylphenidate dosage was clinically determined and ranged from 10 to 30 mg per day. The median time of methylphenidate usage at re-testing was 30 days. Naming speed was determined by the number of words named in a 45 second time period.\n(§4) The mean age of the FMS sample was 46.3±11.6 years with 14.1±2.1 years of education. […] Pre-methylphenidate, the patients read 77.4 words in 45 seconds (581.4 msec/word). Post-methylphenidate, the patients read 93 words in 45 seconds (483.9 msec/word). This represents a 97.5 millisecond benefit from methylphenidate. The normative sample reads 108 words in 45 seconds or 417 msec/word."}, "patients with FMS [3]": {"test_system": "patients with FMS", "assay": "Word naming speed (Stroop Color and Word Test) before and after methylphenidate", "details": "10 to 30 mg per day, median 30 days", "source_text": "Abnormalities in naming speed are an unappreciated feature of cognitive dysfunction in fibromyalgia (FMS). Approximately 50% of FMS patients with memory problems name words at a rate that is 203 milliseconds slower than normal. The connection between naming speed and memory loss in FMS is unclear. Stimulant medications like methylphenidate have been known to influence naming speed and could provide clues to the relationship between cognitive functioning and naming speed. The purpose of this experiment was to determine if faster naming speed is connected to positive change in cognitive functioning in patients with fibromyalgia.\nas §3, §4"}, "patients with FMS [4]": {"test_system": "patients with FMS", "assay": "Interference from pain on energy, mood and concentration, 10 point visual analogue scale", "procedure": "as §1, §2"}}, "note": "Structures can show the parent of a compound that is named as a salt."}
{"smiles": "COC(=O)C(c1ccccc1)C1CCCCN1", "note": "(racemic) [methylphenidate, d,l (racemic)-threo-methyl α-phenyl-2-piperidineacetate hydrochloride]", "values": [{"measurement": "Post-methylphenidate score, Pain intensity", "setting": "patients with FMS [1]; 48 female FMS patients, 10 to 60 mg per day, median 30 days, VAS 1-10, pre-methylphenidate 6.7 ± 1.9, lower scores = improved", "result": "6.4 ± 2.4"}, {"measurement": "significant change in pain intensity with methylphenidate treatment", "setting": "patients with FMS [1]; pre vs post methylphenidate", "result": "not observed"}, {"measurement": "Post-methylphenidate score, Mental Clarity subscale of the Mental Clutter Scale", "setting": "patients with FMS [2]; 15 FMS patients, pre-methylphenidate 48.1 ± 16.5, lower scores represent improved performance, p < 0.01", "result": "29.2 ± 13.6"}, {"measurement": "Post-methylphenidate score, Cognition subscale of the Mental Clutter Scale", "setting": "patients with FMS [2]; 15 FMS patients, pre-methylphenidate 52.8 ± 15.6, lower scores represent improved performance, p < 0.01", "result": "35.1 ± 11.3"}, {"measurement": "improvement with methylphenidate on Cognition (MCS)", "setting": "patients with FMS [2]; pre vs post", "result": 17, "unit": "point"}, {"measurement": "improvement with methylphenidate on Mental Clarity (MCS)", "setting": "patients with FMS [2]; pre vs post", "result": 19, "unit": "point"}, {"measurement": "words read in 45 seconds, post-methylphenidate", "setting": "patients with FMS [3]; pre-methylphenidate 77.4, normative sample 108", "result": 93, "unit": "words in 45 seconds"}, {"measurement": "naming time per word, post-methylphenidate", "setting": "patients with FMS [3]; pre-methylphenidate 581.4, normative sample 417", "result": 483.9, "unit": "msec/word"}, {"measurement": "benefit from methylphenidate in naming time per word", "setting": "patients with FMS [3]; pre minus post", "result": 97.5, "unit": "millisecond"}, {"measurement": "Post-methylphenidate score, pain interference on Mood", "setting": "patients with FMS [4]; 48 female FMS patients, 10 to 60 mg per day, median 30 days, VAS 1-10, pre-methylphenidate 6.0 ± 2.6, lower scores = improved, p < 0.05", "result": "5.3 ± 2.5"}, {"measurement": "Post-methylphenidate score, pain interference on Concentration", "setting": "patients with FMS [4]; 48 female FMS patients, 10 to 60 mg per day, median 30 days, VAS 1-10, pre-methylphenidate 6.5 ± 2.3, lower scores = improved", "result": "5.4 ± 2.4"}, {"measurement": "Post-methylphenidate score, pain interference on Energy", "setting": "patients with FMS [4]; 48 female FMS patients, 10 to 60 mg per day, median 30 days, VAS 1-10, pre-methylphenidate 6.6 ± 2.4, lower scores = improved", "result": "5.9 ± 2.2"}, {"measurement": "change in pain interference on concentration, repeated measures ANOVA", "setting": "patients with FMS [4]; pre vs post methylphenidate, p<0.001, largest change", "result": "significant reduction"}, {"measurement": "change in pain interference on energy, repeated measures ANOVA", "setting": "patients with FMS [4]; pre vs post methylphenidate, p<0.01", "result": "significant reduction"}, {"measurement": "change in pain interference on mood, repeated measures ANOVA", "setting": "patients with FMS [4]; pre vs post methylphenidate, p<0.05", "result": "significant reduction"}]}
